BindingDB's records for doi:10.1016/j.bioorg.2014.07.012 (Kurukshetra University, 2014)
pKi: −log10 of the molar value.

Tests used:
Cathepsin B = Cathepsin B (Capra hircus, UniProt H9B8T9); test: Enzymatic activity assay; conditions: pH 6; 37 °C
Experimental: (§1) Enzyme was equilibrated in 0.1 M phosphate buffer, pH 6.0 at 37 °C. All compounds were prepared in DMSO. Various concentrations of compounds were added in the reaction mixture separately. The reactions were incubated for 30 min and the activity was estimated by the usual enzyme assay at pH 6.0 using a-N-benzoyl-D,L-arginine-2-naphthylamide (BANA) as substrate.

Cathepsin H = target: T1, Cathepsin H (Capra hircus, UniProt A0A060INS8); test: Enzymatic activity assay; conditions: pH 6; 37 °C
T1 sequence (A0A060INS8 whole entry): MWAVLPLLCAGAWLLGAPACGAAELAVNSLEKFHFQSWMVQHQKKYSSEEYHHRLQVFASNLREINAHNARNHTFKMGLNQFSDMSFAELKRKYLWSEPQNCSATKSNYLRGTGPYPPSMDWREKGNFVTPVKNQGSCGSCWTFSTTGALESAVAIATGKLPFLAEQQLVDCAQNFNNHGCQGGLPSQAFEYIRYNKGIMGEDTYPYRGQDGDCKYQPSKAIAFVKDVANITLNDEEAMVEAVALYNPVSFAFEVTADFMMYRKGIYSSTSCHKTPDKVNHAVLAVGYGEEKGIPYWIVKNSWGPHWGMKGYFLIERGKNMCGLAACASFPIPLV
Experimental: as §1

Row | SMILES | pKi (Cathepsin B) | pKi (Cathepsin H)
1 | O=C(c1ccccc1)N1N=C(c2ccccc2)CC1c1ccccc1 (stereo not given) [N-benzoyl-3,5-diphenylpyrazoline (2a)] | 5.94 | 5.49
2 | O=C(c1ccccc1)N1N=C(c2ccccc2)CC1c1ccccc1Cl (stereo not given) [N-benzoyl-5-(-2'-chlorophenyl)-3-phenylpyrazoline (2b)] | 6.11 | 5.72
3 | COc1ccccc1C1CC(c2ccccc2)=NN1C(=O)c1ccccc1 (stereo not given) [N-benzoyl-5-(-2'-methoxyphenyl)-3-phenylpyrazoline (2e)] | 5.31 | 5.02
4 | O=C(c1ccccc1)N1N=C(c2ccccc2)CC1c1ccccc1[N+](=O)[O-] (stereo not given) [N-benzoyl-5-(-2'-nitrophenyl)-3-phenylpyrazoline (2h)] | 6.24 | 5.84
5 | O=C(c1ccccc1)N1N=C(c2ccccc2)CC1c1cccc(Cl)c1 (stereo not given) [N-benzoyl-5-(-3'-chlorophenyl)-3-phenylpyrazoline (2c)] | 6.17 | 5.74
6 | COc1cccc(C2CC(c3ccccc3)=NN2C(=O)c2ccccc2)c1 (stereo not given) [N-benzoyl-5-(-3'-methoxyphenyl)-3-phenylpyrazoline (2f)] | 5.80 | 5.30
7 | O=C(c1ccccc1)N1N=C(c2ccccc2)CC1c1cccc([N+](=O)[O-])c1 (stereo not given) [N-benzoyl-5-(-3'-nitrophenyl)-3-phenylpyrazoline (2i)] | 6.71 | 6.01
8 | O=C(c1ccccc1)N1N=C(c2ccccc2)CC1c1ccc(Cl)cc1 (stereo not given) [N-benzoyl-5-(-4'-chlorophenyl)-3-phenylpyrazoline (2d)] | 6.03 | 5.52
9 | COc1ccc(C2CC(c3ccccc3)=NN2C(=O)c2ccccc2)cc1 (stereo not given) [N-benzoyl-5-(-4'-methoxyphenyl)-3-phenylpyrazoline (2g)] | 5.89 | 5.39
10 | O=C(c1ccccc1)N1N=C(c2ccccc2)CC1c1ccc([N+](=O)[O-])cc1 (stereo not given) [N-benzoyl-5-(-4'-nitrophenyl)-3-phenylpyrazoline (2j)] | 6.54 | 5.90
11 | O=CN1N=C(c2ccccc2)CC1c1ccccc1 (stereo not given) [N-formyl-3,5-diphenylpyrazoline (1a)] | 7.64 | 6.76
12 | O=CN1N=C(c2ccccc2)CC1c1ccccc1Cl (stereo not given) [N-formyl-5-(-2'-chlorophenyl)-3-phenylpyrazoline (1b)] | 7.74 | 6.87
13 | COc1ccccc1C1CC(c2ccccc2)=NN1C=O (stereo not given) [N-formyl-5-(-2'-methoxyphenyl)-3-phenylpyrazoline (1e)] | 7.18 | 6.41
14 | O=CN1N=C(c2ccccc2)CC1c1ccccc1[N+](=O)[O-] (stereo not given) [N-formyl-5-(-2'-nitrophenyl)-3-phenylpyrazoline (1h)] | 7.85 | 7.02
15 | O=CN1N=C(c2ccccc2)CC1c1cccc(Cl)c1 (stereo not given) [N-formyl-5-(-3'-chlorophenyl)-3-phenylpyrazoline (1c)] | 7.84 | 6.89
16 | COc1cccc(C2CC(c3ccccc3)=NN2C=O)c1 (stereo not given) [N-formyl-5-(-3'-methoxyphenyl)-3-phenylpyrazoline (1f)] | 7.34 | 6.57
17 | O=CN1N=C(c2ccccc2)CC1c1cccc([N+](=O)[O-])c1 (stereo not given) [N-formyl-5-(-3'-nitrophenyl)-3-phenylpyrazoline (1i)] | 8.96 | 7.28
18 | O=CN1N=C(c2ccccc2)CC1c1ccc(Cl)cc1 (stereo not given) [N-formyl-5-(-4'-chlorophenyl)-3-phenylpyrazoline (1d)] | 7.68 | 6.86
19 | COc1ccc(C2CC(c3ccccc3)=NN2C=O)cc1 (stereo not given) [N-formyl-5-(-4'-methoxyphenyl)-3-phenylpyrazoline (1g)] | 7.35 | 6.66
20 | O=CN1N=C(c2ccccc2)CC1c1ccc([N+](=O)[O-])cc1 (stereo not given) [N-formyl-5-(-4'-nitrophenyl)-3-phenylpyrazoline (1j)] | 7.95 | 7.24
